Results published in ChEMBL document CHEMBL3507680, “University of Dundee, Gates Library screen for HepG2 cell viability”.

Assay: Human HepG2 cell viability assay in 384 well format
Format: toxicity, cell-based
Parameters: dose 125 nL, time 70.5 hour; concentration not given beside the values
Conditions: HepG2 cells, read-out: Inhibition

Going from O=C(N1CCOCC1)n1cnc2ccccc21 to CSc1ccc(C(C(=O)O)N2CCOCC2)cc1 (configuration not stated), the cytotoxicity at 70.5 h rises from -11.5% to -11.2%.

First: COc1cc(C#N)ccc1OC12CCCN(CC1)C2 (configuration not stated)
Second: Cc1ccc(Cl)cc1-n1nnnc1C1(N2CCCC2)CCCC1
The cytotoxicity at 70.5 h of the first is higher: -8.26% for the first, -11.5% for the second.

Compared with CC(C)=CCN1C[C@H]2CC[C@@H]1CN(C(=O)Cn1c(C)cc(C)nc1=O)C2, CSc1ncccc1C(=O)N1C[C@H]2CC[C@@H]1CN(C(C)=O)C2 is lower in cytotoxicity at 70.5 h: -4.66% for the first, -6.7% for the second.

Going from COc1ccnc(N2CCC(=O)N(CC3CC3)C(C(C)C)C2)n1 (configuration not stated) to CO[C@H]1[C@@H]2CC[C@H]1CN(c1nc(C)nc3ccsc13)C2, the cytotoxicity at 70.5 h falls from 32.2% to 19.4%.

Going from COCCNc1ncnc2c1CCN(C(=O)CC1CCC(=O)N1)CC2 (configuration not stated) to CN1C(=O)CC(C(=O)O)C12CCN(c1ccc3c(n1)CCCC3)CC2 (configuration not stated), the cytotoxicity at 70.5 h rises from -12.7% to -5.19%.

Compared with NC(=O)N1CCCC(C(=O)N2CCN(c3nsc4ccccc34)CC2)C1 (configuration not stated), N#CC1CCCN(C(=O)Cn2ncc(N3CCCC3)cc2=O)C1 (configuration not stated) is lower in cytotoxicity at 70.5 h: -3.95% for the first, -7.57% for the second.

Going from Cc1cccc(C)c1Oc1ncccc1CNC(=O)C1COC(=O)N1 (configuration not stated) to Cc1ccc(C)c2c(=O)cc(CN3CC[C@@H](N)[C@H](O)C3)[nH]c12, the cytotoxicity at 70.5 h rises from -21.8% to -3.81%.

First: CN(C)Cc1nnc(C2CCN(c3ncccc3Cl)CC2)n1C1CC1
Second: CC(C)CN1CCC(c2nnc(CN3CCCC3)n2C2CC2)CC1
The cytotoxicity at 70.5 h of the first is higher: 8.65% for the first, -6.17% for the second.

Compared with O=C(Nc1ccc(-c2ccco2)cc1)C1CCCN(Cc2ccon2)C1 (configuration not stated), Cc1cncc(NC(=O)c2ccc(CN3CCCC(C(N)=O)C3)cc2)c1 (configuration not stated) is lower in cytotoxicity at 70.5 h: 1.57% for the first, -0.673% for the second.

Going from CC(CCN1CCCn2nc(CNS(C)(=O)=O)cc2C1)c1ccccc1 (configuration not stated) to COc1ccccc1N1CCN(CC[C@H](O)c2ccccc2)CC1=O, the cytotoxicity at 70.5 h falls from 17.7% to -12%.

Going from COCCn1c(CN2CCCO2)cnc1S(=O)(=O)CC1CCCCC1 to CS(=O)(=O)c1cnc(CC2CC2)nc1C1CCCNC1 (configuration not stated), the cytotoxicity at 70.5 h rises from -2.9% to 19.7%.

First: CN(C)C(C(=O)N1CC(c2ccccn2)C1)c1cccc(F)c1 (configuration not stated)
Second: O=C(O)[C@@H]1CN(Cc2c[nH]c(CC3CCCC3)n2)C[C@H]1c1ccccn1
The cytotoxicity at 70.5 h of the first is lower: -2.09% for the first, 17.2% for the second.

Going from CC(C)c1nc(CNc2nccc(CCC(F)(F)F)n2)cs1 to FC(F)(F)CCc1ccnc(N2CCN(Cc3ccccn3)CC2)n1, the cytotoxicity at 70.5 h rises from -8.19% to 6.16%.

Compared with CC(C)n1ccnc1C1CCN(Cc2ccc(C(F)(F)F)c(F)c2)CC1, CC(C1CCN(Cc2ccccc2OC(F)F)CC1)N1CCOCC1 (configuration not stated) is lower in cytotoxicity at 70.5 h: 23.4% for the first, -8.64% for the second.

Compared with O=C(O)[C@H]1C[C@@H](C(=O)NCc2ccncc2)CN(Cc2ccccc2)C1, CCc1ccc(CN2C[C@@H](C(=O)O)[C@H](c3ccccc3OC)C2)o1 is lower in cytotoxicity at 70.5 h: -1.34% for the first, -1.56% for the second.

Going from O=C(c1ccc(C2CCCN2C(=O)c2ccc[nH]2)s1)N1CCSCC1 (configuration not stated) to CN(C)Cc1ccc(C2CCCCN2C(=O)c2cc(=O)[nH]c(=O)[nH]2)cc1 (configuration not stated), the cytotoxicity at 70.5 h rises from -19.6% to -5.8%.

Going from c1ccc(C(CNc2ncccn2)N2CCOCC2)nc1 (configuration not stated) to c1cc(-c2cnccn2)cc(-c2ccn(CCN3CCCCC3)n2)c1, the cytotoxicity at 70.5 h falls from -1.54% to -7.67%.

Compared with Cc1n[nH]c(C)c1-c1cc(-c2cc[nH]c2)nc(N)c1C#N, Cc1nc(-c2cc(F)c3c(c2)CC(CN)O3)c[nH]1 (configuration not stated) is higher in cytotoxicity at 70.5 h: -12.3% for the first, 3.79% for the second.

Compared with Cc1ccc(C(=O)N2CCC3(CC2)c2ccccc2[C@@H](N)[C@@H]3O)c(=O)[nH]1, CC(C)N1CC2(CCC1=O)CCN(C(=O)c1cc(F)ccc1Cl)CC2 is higher in cytotoxicity at 70.5 h: -7.97% for the first, -5.5% for the second.

Compared with Cc1cc(C)nc(N2CCC(C(=O)O)(n3ccc(C(C)(C)C)n3)CC2)n1, CN1CCC2(CCC1=O)CCN(C(=O)Cc1ccc(O)c(F)c1)CC2 is higher in cytotoxicity at 70.5 h: -10.1% for the first, 2.31% for the second.

Going from COCCN1CCN(Cc2ccc(Cl)cc2)[C@H]2CS(=O)(=O)C[C@H]21 to Cc1ccc(CN2CCN(Cc3nccn3C)[C@H]3CS(=O)(=O)C[C@H]32)o1, the cytotoxicity at 70.5 h falls from 0.00609% to -6.86%.

Going from O=C(NC1CC(=O)N(C2Cc3ccccc3C2)C1)c1ccsc1 (configuration not stated) to O=C(c1cc(Cl)c[nH]c1=O)N1C[C@@H]2CC[C@H](C1)N(Cc1ccccc1)C2, the cytotoxicity at 70.5 h rises from -3.74% to 12.7%.

Compared with NC(=O)NCC(=O)N1CCCC(OCc2cccnc2)C1 (configuration not stated), O=C(CCc1cc(O)no1)N1CCCC(COc2ccccc2F)C1 (configuration not stated) is lower in cytotoxicity at 70.5 h: 47.2% for the first, -20.7% for the second.

First: CN(C)CC1(O)CCCN(Cc2cnc(-c3ccco3)nc2)CC1 (configuration not stated)
Second: OC1CCCOC12CCN(Cc1nnc(-c3cccnc3)o1)CC2 (configuration not stated)
The cytotoxicity at 70.5 h of the first is lower: -8.26% for the first, 0.216% for the second.

First: CCCN1CCN(C(=O)c2cccc3cccnc23)[C@H]2CS(=O)(=O)C[C@H]21
Second: CC(C)=CCN1CCN(Cc2nc3ccccc3[nH]2)[C@H]2CS(=O)(=O)C[C@H]21
The cytotoxicity at 70.5 h of the first is higher: 25.6% for the first, -8.69% for the second.

Going from COC1CCN(S(=O)(=O)N2CCC3(CCCNC3=O)C2)CC1 (configuration not stated) to COCC[C@]1(O)CCN(C(=O)C2CCN(C3CCCC3)CC2)C[C@H]1C, the cytotoxicity at 70.5 h falls from -0.998% to -5.71%.

First: Cc1ccccc1-n1cc(-c2ccnc(N3CCCC(O)C3)n2)cn1 (configuration not stated)
Second: O=C(O)CSc1nnc(-c2ccco2)n1-c1ccccc1C(F)(F)F
The cytotoxicity at 70.5 h of the first is higher: -3.81% for the first, -4.07% for the second.

Compared with Cc1ccccc1SCC(=O)Nn1cnnc1, CC[C@@H](c1ccccc1)n1c(CCN)n[nH]c1=O is higher in cytotoxicity at 70.5 h: -9.7% for the first, -5.25% for the second.

Going from CC(Cn1cncn1)NCc1ccc2nonc2c1 (configuration not stated) to CCCc1cc(NCc2cc(C)on2)n2nccc2n1, the cytotoxicity at 70.5 h rises from -5.99% to 14.2%.

First: O=C(CCc1nc(Cl)n[nH]1)N1C[C@H](CO)C[C@H](CN2CCCC2)C1
Second: Cc1cc(CN2CCN(C(C)C)C(CCO)C2)[nH]n1 (configuration not stated)
The cytotoxicity at 70.5 h of the first is lower: -7.42% for the first, 9.92% for the second.

Compared with COc1cccc([C@@H]2CN(C3CSCCSC3)C[C@H]2C(=O)O)c1, CCN1CC2(CCN(C(=O)C(C)Oc3cccc(Cl)c3)CC2)OC1=O (configuration not stated) is lower in cytotoxicity at 70.5 h: -1.5% for the first, -11.6% for the second.

Compared with CSc1ccc(C(C(=O)O)N2CCCC2)cc1 (configuration not stated), C[C@H](c1ccc(Cl)cc1)n1c(C2CC2)n[nH]c1=O is higher in cytotoxicity at 70.5 h: -7.97% for the first, -3.55% for the second.

Compared with c1cn(Cc2nnc(C3CCN(C4CCCCC4)CC3)n2C2CC2)cn1, CN(Cc1ccsc1)Cc1ccc(C2CCCCO2)o1 (configuration not stated) is lower in cytotoxicity at 70.5 h: -1.01% for the first, -3.14% for the second.

Going from COc1ccc(C2Nc3ccccc3NC3=C2C(=O)NC3)cc1OC (configuration not stated) to CC1=CC(C)(C)N(CN2C(=O)c3ccccc3C2=O)c2ccc(C)cc21, the cytotoxicity at 70.5 h rises from -7.99% to 7.06%.

Going from CCN(Cc1cc(Cl)c(O)c(OC)c1)Cc1nc(COC)no1 to CNS(=O)(=O)CCn1cc(-c2cc3c(cc2OC)CCC3)nn1, the cytotoxicity at 70.5 h falls from -4.93% to -7.97%.

First: CC(=O)c1ccc(F)cc1-c1cc(NCCO)nc2[nH]ccc12
Second: CC(C)(CNC(=O)c1ccco1)CNC(=O)c1ccco1
The cytotoxicity at 70.5 h of the first is higher: -0.208% for the first, -1.35% for the second.

First: COc1cc(C)ccc1S(=O)(=O)N[C@H]1CN(C(C)=O)C[C@@H]1C1CC1
Second: COCCN(C)C[C@@H]1CN(C(=O)c2ccc(O)c(C)c2)C[C@@H]1CO
The cytotoxicity at 70.5 h of the first is higher: 18.1% for the first, -2.33% for the second.

Compared with CCOCCC(=O)N(Cc1ccncc1)C(C)CC (configuration not stated), CC(=O)c1cc(CN2C[C@@H](N(C)C)[C@H](C(C)C)C2)cs1 is lower in cytotoxicity at 70.5 h: 20.8% for the first, 8.63% for the second.

In the case of CC1=CC(C)(C)N(CN2C(=O)c3ccccc3C2=O)c2ccccc21, the cytotoxicity at 70.5 h was 0.789%.
